Results: patent US20260216170A1, “TETRAHYDROISOQUINOLINE HETEROBIFUNCTIONAL BCL-XL DEGRADERS” (Treeline Biosciences, Inc., priority 2023, published 2026)

Biological target: T1, Human BCL-XL protein (N-terminal HiBiT tagged BCL-XL expressed in HT1080 cells) (Homo sapiens, UniProt Q07817)
T1 construct: expressed in transfected cells; host or cells: HT-1080 (ATCC CCL-121), stably transduced with lentivirus pLV-UBC-N-HiBiT-BCL-XL-PGK-puro and selected with puromycin
Experiment: HiBiT Based Degradation Assay
Type: cell-based
Conditions: 24 hours incubation; for DC50: BCL-XL degradation, HT1080 cells expressing N-HiBiT-BCL-XL, normalized with DMSO control, geometric mean for multiple data points, read-out: EC50 (24 h); for Ymin (24 h): bottom of BCL-XL degradation curve (remaining HiBiT-BCL-XL signal vs DMSO control), HT1080 cells
In short: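 BCL-XL degradation was read as Nano-Glo HiBiT lytic luminescence relative to DMSO after a 24 h compound treatment of HT1080 cells carrying stably integrated N-HiBiT-BCL-XL. EC50 values come from four-parameter logistic curves, with the hook-curve minimum fixed as bottom, and are geometric means where tested repeatedly.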

T1 sequence (Q07817 whole entry): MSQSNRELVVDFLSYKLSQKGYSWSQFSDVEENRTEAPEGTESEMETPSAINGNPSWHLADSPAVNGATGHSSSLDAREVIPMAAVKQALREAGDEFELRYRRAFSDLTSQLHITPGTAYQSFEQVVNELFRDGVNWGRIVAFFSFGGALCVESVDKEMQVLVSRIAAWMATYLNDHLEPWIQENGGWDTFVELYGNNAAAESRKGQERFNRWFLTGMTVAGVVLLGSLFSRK

DC50 [nM] | Ymin (24 h) | Structure (SMILES)
10 to 100 | B (30% ≤ Ymin < 50%) | C[C@H]1C[C@H](CCCOc2cccc(-c3ccc(N4CCc5cccc(C(=O)Nc6nc7ccccc7s6)c5C4)nc3C(=O)O)c2C(F)(F)F)CCN1CC(=O)Nc1ccc2c(C3CCC(=O)NC3=O)nn(C)c2c1 (stereo partly shown) [Compound 215a]
< 10 | A (Ymin < 30%) | Cc1cc(OCCC[C@H]2CCN(CC(=O)Nc3ccc4c(C5CCC(=O)NC5=O)nn(C)c4c3)[C@@H](C)C2)ccc1-c1ccc(N2CCc3ccnc(C(=O)Nc4nc5ccccc5s4)c3C2)nc1C(=O)O (stereo partly drawn) [Compound 219b, 6-(8-(benzo[d]thiazol-2-ylcarbamoyl)-3,4-dihydro-2,7-naphthyridin-2(1H)-yl)-3-(4-(3-((2S,4S)-1-(2-((3-(2,6-dioxopiperidin-3-yl)-1-methyl-1H-indazol-6-yl)amino)-2-oxoethyl)-2-methylpiperidin-4-yl)propoxy)-2-methylphenyl)picolinic acid]
10 to 100 | B (30% ≤ Ymin < 50%) | Cc1c(OCCC[C@@H]2CCN(CC(=O)Nc3ccc4c(C5CCC(=O)NC5=O)nn(C)c4c3)[C@H](C)C2)cccc1-c1ccc(N2CCc3ccnc(C(=O)Nc4nc5ccccc5s4)c3C2)nc1C(=O)O (stereo partly drawn) [Compound 216d, 6-(8-(benzo[d]thiazol-2-ylcarbamoyl)-3,4-dihydro-2,7-naphthyridin-2(1H)-yl)-3-(3-(3-((2R,4R)-1-(2-((3-(2,6-dioxopiperidin-3-yl)-1-methyl-1H-indazol-6-yl)amino)-2-oxoethyl)-2-methylpiperidin-4-yl)propoxy)-2-methylphenyl)picolinic acid]
10 to 100 | B (30% ≤ Ymin < 50%) | COc1c(NC(=O)CN2CCC(CC[C@H](C)Oc3ccc(-c4ccc(N5CCc6cccc(C(=O)Nc7nc8ccccc8s7)c6C5)nc4C(=O)O)c(C)c3)CC2)ccc2c(C3CCC(=O)NC3=O)nn(C)c12 (single isomer, unassigned) [Compound 223a]
< 10 | B (30% ≤ Ymin < 50%) | COc1c(NC(=O)CN2CC[C@@H](CCCOc3cccc(-c4ccc(N5CCc6ccnc(C(=O)Nc7nc8ccccc8s7)c6C5)nc4C(=O)O)c3C)C[C@@H]2C)ccc2c(C3CCC(=O)NC3=O)nn(C)c12 (stereo partly shown) [Compound 216b]

The next lines start with the molecule.

Structure (SMILES) | DC50 [nM] | Ymin (24 h)
COc1c(NC(=O)CN2CC[C@H](CCCOc3cccc(-c4ccc(N5CCc6cccc(C(=O)Nc7nc8ccccc8s7)c6C5)nc4C(=O)O)c3C)C[C@@H]2C)ccc2c(C3CCC(=O)NC3=O)nn(C)c12 (stereo partly shown) [Compound 208b] | 10 to 100 | B (30% ≤ Ymin < 50%)
COc1c(NC(=O)CN2CCC3(CC2)CC(Oc2cccc(-c4ccc(N5CCc6cccc(C(=O)Nc7nc8ccccc8s7)c6C5)nc4C(=O)O)c2C(F)(F)F)C3)ccc2c(C3CCC(=O)NC3=O)nn(C)c12 (stereo not shown) [Compound 166, 6-(8-(benzo[d]thiazol-2-ylcarbamoyl)-3,4-dihydroisoquinolin-2(1H)-yl)-3-(3-((7-(2-((3-(2,6-dioxopiperidin-3-yl)-7-methoxy-1-methyl-1H-indazol-6-yl)amino)-2-oxoethyl)-7-azaspiro[3.5]nonan-2-yl)oxy)-2-(trifluoromethyl)phenyl)picolinic acid] | 10 to 100 | B (30% ≤ Ymin < 50%)
Cc1c(OCCCC2(O)CCN(CC(=O)Nc3ccc4c(C5CCC(=O)NC5=O)nn(C)c4c3)CC2)cccc1-c1ccc(N2CCc3cccc(C(=O)Nc4nc5ccccc5s4)c3C2)nc1C(=O)O (stereo not shown) [Compound 108, 6-(8-(benzo[d]thiazol-2-ylcarbamoyl)-3,4-dihydroisoquinolin-2(1H)-yl)-3-(3-(3-(1-(2-((3-(2,6-dioxopiperidin-3-yl)-1-methyl-1H-indazol-6-yl)amino)-2-oxoethyl)-4-hydroxypiperidin-4-yl)propoxy)-2-methylphenyl)picolinic acid] | 10 to 100 | B (30% ≤ Ymin < 50%)
Cn1nc(C2CCC(=O)NC2=O)c2ccc(NC(=O)CN3CCC4(CC3)CC(COc3ccc(-c5ccc(N6CCc7cccc(C(=O)Nc8nc9ccccc9s8)c7C6)nc5C(=O)O)c(C(F)(F)F)c3)C4)cc21 (stereo not shown) [Compound 131, 6-(8-(benzo[d]thiazol-2-ylcarbamoyl)-3,4-dihydroisoquinolin-2(1H)-yl)-3-(4-((7-(2-((3-(2,6-dioxopiperidin-3-yl)-1-methyl-1H-indazol-6-yl)amino)-2-oxoethyl)-7-azaspiro[3.5]nonan-2-yl)methoxy)-2-(trifluoromethyl)phenyl)picolinic acid] | < 10 | B (30% ≤ Ymin < 50%)
Cn1nc(C2CCC(=O)NC2=O)c2ccc(NC(=O)CN3CCC(CCCOc4ccc(-c5ccc(N6CCc7cccc(C(=O)Nc8nc9ccccc9s8)c7C6)nc5C(=O)O)c(F)c4)CC3)cc21 (stereo not shown) [Compound 199] | < 10 | A (Ymin < 30%)
Cc1cc(OC[C@H](C)CC2CCN(CC(=O)Nc3ccc4c(C5CCC(=O)NC5=O)nn(C)c4c3)CC2)ccc1-c1ccc(N2CCc3ccnc(C(=O)Nc4nc5ccccc5s4)c3C2)nc1C(=O)O (single isomer, unassigned) [Compound 140a] | < 10 | A (Ymin < 30%)
Cn1nc(C2CCC(=O)NC2=O)c2ccc(NC(=O)CN3CCC4(CCC(Oc5cccc(-c6ccc(N7CCc8cccc(C(=O)Nc9nc%10ccccc%10s9)c8C7)nc6C(=O)O)c5C(F)(F)F)CC4)CC3)cc21 (stereo not shown) [Compound 196] | < 10 | B (30% ≤ Ymin < 50%)
COc1c(NC(=O)CN2CCC3(CC2)CC(Oc2ccc(-c4ccc(N5CCc6cccc(C(=O)Nc7nc8ccccc8s7)c6C5)nc4C(=O)O)c(C(F)(F)F)c2)C3)ccc2c(C3CCC(=O)NC3=O)nn(C)c12 (stereo not shown) [Compound 172, 6-(8-(benzo[d]thiazol-2-ylcarbamoyl)-3,4-dihydroisoquinolin-2(1H)-yl)-3-(4-((7-(2-((3-(2,6-dioxopiperidin-3-yl)-7-methoxy-1-methyl-1H-indazol-6-yl)amino)-2-oxoethyl)-7-azaspiro[3.5]nonan-2-yl)oxy)-2-(trifluoromethyl)phenyl)picolinic acid] | 10 to 100 | B (30% ≤ Ymin < 50%)
Cc1cc(OCCC2CC3(CCN(CC(=O)Nc4ccc5c(C6CCC(=O)NC6=O)nn(C)c5c4)CC3)C2)ccc1-c1ccc(N2CCc3cccc(C(=O)Nc4nc5ccccc5s4)c3C2)nc1C(=O)O (stereo not shown) [Compound 115, 6-(8-(benzo[d]thiazol-2-ylcarbamoyl)-3,4-dihydroisoquinolin-2(1H)-yl)-3-(4-(2-(7-(2-((3-(2,6-dioxopiperidin-3-yl)-1-methyl-1H-indazol-6-yl)amino)-2-oxoethyl)-7-azaspiro[3.5]nonan-2-yl)ethoxy)-2-methylphenyl)picolinic acid] | 10 to 100 | B (30% ≤ Ymin < 50%)
Cc1cc(OC2CCC3(CC2)CCN(CC(=O)Nc2ccc4c(C5CCC(=O)NC5=O)nn(C)c4c2)CC3)ccc1-c1ccc(N2CCc3cccc(C(=O)Nc4nc5ccccc5s4)c3C2)nc1C(=O)O (stereo not shown) [Compound 221] | < 10 | A (Ymin < 30%)
Cc1c(OC2CC3(CCN(CC(=O)Nc4ccc5c(C6CCC(=O)NC6=O)nn(C)c5c4F)CC3)C2)cccc1-c1ccc(N2CCc3ccnc(C(=O)Nc4nc5ccccc5s4)c3C2)nc1C(=O)O (stereo not shown) [Compound 204, 6-(8-(benzo[d]thiazol-2-ylcarbamoyl)-3,4-dihydro-2,7-naphthyridin-2(1H)-yl)-3-(3-((7-(2-((3-(2,6-dioxopiperidin-3-yl)-7-fluoro-1-methyl-1H-indazol-6-yl)amino)-2-oxoethyl)-7-azaspiro[3.5]nonan-2-yl)oxy)-2-methylphenyl)picolinic acid] | < 10 | B (30% ≤ Ymin < 50%)
Cc1c(OCC[C@@H]2C[C@@H]3CN(CC(=O)Nc4ccc5c(C6CCC(=O)NC6=O)nn(C)c5c4)C[C@@H]3C2)cccc1-c1ccc(N2CCc3cccc(C(=O)Nc4nc5ccccc5s4)c3C2)nc1C(=O)O (stereo partly shown) [Compound 173a] | < 10 | B (30% ≤ Ymin < 50%)
Cc1c(OC[C@@H]2C[C@H]2CC2CCN(CC(=O)Nc3ccc4c(C5CCC(=O)NC5=O)nn(C)c4c3)CC2)cccc1-c1ccc(N2CCc3cccc(C(=O)Nc4nc5ccccc5s4)c3C2)nc1C(=O)O (single isomer, unassigned) [Compound 1004b] | 10 to 100 | B (30% ≤ Ymin < 50%)
COc1c(NC(=O)CN2CCC(CCCOc3ccc(-c4ccc(N5CCc6cccc(C(=O)Nc7nc8ccccc8s7)c6C5)nc4C(=O)O)c(C)c3)CC2)ccc2c(C3CCC(=O)NC3=O)nn(C)c12 (stereo not shown) [Compound 105, 6-[8-(1,3-benzothiazol-2-ylcarbamoyl)-3,4-dihydro-1H-isoquinolin-2-yl]-3-[4-[3-[1-[2-[[3-(2,6-dioxo-3-piperidyl)-7-methoxy-1-methyl-indazol-6-yl]amino]-2-oxo-ethyl]-4-piperidyl]propoxy]-2-methyl-phenyl]pyridine-2-carboxylic acid] | 10 to 100 | A (Ymin < 30%)
COc1c(NC(=O)CN2CCC3(CC2)CC(COc2ccc(-c4ccc(N5CCc6ccnc(C(=O)Nc7nc8ccccc8s7)c6C5)nc4C(=O)O)c(C(F)(F)F)c2)C3)ccc2c(C3CCC(=O)NC3=O)nn(C)c12 (stereo not shown) [Compound 181, 6-[8-(1,3-benzothiazol-2-ylcarbamoyl)-3,4-dihydro-1H-2,7-naphthyridin-2-yl]-3-[4-[[7-[2-[[3-(2,6-dioxo-3-piperidyl)-7-methoxy-1-methyl-indazol-6-yl]amino]-2-oxo-ethyl]-7-azaspiro[3.5]nonan-2-yl]methoxy]-2-(trifluoromethyl)phenyl]pyridine-2-carboxylic acid] | 10 to 100 | B (30% ≤ Ymin < 50%)
